Holding throughout (assay): NCI-60 cell line screen, 48 h
In assay [1] the test system is MOLT-4 leukemia.
Assay [2] concerns HCT-116 colon.
For assay [3], the system named is MDA-MB-231 breast.
Assay [4] deals with OVCAR-4 ovarian.
Assay [5] deals with NCI-H522 lung.
Assay [6] relates to SK-MEL-28 melanoma.
Assay [7] has as its system 786-0 renal.
The subject of assay [8] is CAKI-1 renal.
The subject of assay [9] is HOP-62 NSCLC.
The test system of assay [10] is RXF 393 renal.

Where “and” joins values, the source holds several entries; their conditions need not be identical. Identical values can stand only once.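 All cell lines were grown in 96-well plates and treated with compound for 48 hours. GI50 = concentration required for 50% inhibition of growth. The concentration for full growth arrest is given as TGI.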

Results on 13 molecules are retold here after PubChem BioAssay (NCI).

For `C/C(=C(/c1ccc(O)cc1)c1ccc(Cl)cc1)c1ccccc1`, the GI50 in [1] is 678 nM; in [2], 543 nM; in assay [3], 653 nM; in assay [4], 0.66 µM; in [5] it was 739 nM; in assay [6] it was 0.685 µM. The GI50 was 558 nM in [7], 781 nM in assay [8], 546 nM in assay [9] and 469 nM in [10]. Besides, the TGI in assay [1] was 2.41 µM; in [2] it was 1.27 µM; in assay [3], 1.86 µM; in assay [4], 2.61 µM; in assay [5] it was 2.8 µM; in [6], 2.18 µM. In addition, the TGI in assay [7] turned out to be 1.56 µM; in assay [8], 2.68 µM; in assay [9] it was 1.37 µM; in assay [10], 1.17 µM.
As for `CCCCCCNC(=O)Oc1ccc(/C(=C(/C)Cc2ccc(OC)cc2)c2ccc(OCCN(C)C)cc2)cc1`, the GI50 was 5230 nM in assay [1]; 5520 nM in assay [2]; 5000 nM in assay [3]; 5.02 µM in assay [4]; 5610 nM in assay [5]; 3.88 µM in assay [6]. Besides, the GI50 is 4970 nM in assay [7], 5390 nM in assay [8], 6180 nM in assay [9] and 4360 nM in [10]. For the same molecule, the TGI in [1] is 11.5 µM; in [2] it was 10.3 µM; in assay [3] it was 9.65 µM; in [4] it was 10.3 µM; in assay [5], 10.6 µM; in assay [6], 8.06 µM. Also, the TGI was 9.49 µM in assay [7], 9.95 µM in [8], 11 µM in assay [9] and 9.23 µM in [10].
Regarding `Oc1c(Cl)cc(Cl)cc1Sc1cc(Cl)cc(Cl)c1O`, the GI50 is 3800 nM and 2550 nM in assay [1]; 2870 nM and 2440 nM in assay [2]; 2590 nM and 1860 nM in [3]; 3.97 µM and 3.2 µM in assay [4]; 2490 nM in [5]; 7.01 µM and 4 µM in assay [6]. Moreover, the GI50 was 3220 nM and 2830 nM in [7]; 2650 nM and 2040 nM in assay [8]; 3370 nM and 2170 nM in assay [9]; 2840 nM and 2520 nM in [10]. Further, the TGI was 11.7 µM and 13.1 µM in assay [1]; 9 µM and 6.51 µM in assay [2]; 6.07 µM and 4.34 µM in assay [3]; 14.3 µM and 11.7 µM in assay [4]; 7.03 µM in assay [5]; 21 µM and 14.5 µM in assay [6]. Besides, the TGI in assay [7] is 10.4 µM and 7.85 µM; in assay [8] it was 9.13 µM and 5.93 µM; in [9] it was 14.9 µM and 5.66 µM; in assay [10], 8.76 µM and 7.65 µM.
Consider `C/C(=N\NC(=S)N1CCN(c2ccccn2)CC1)c1nccs1`, for which the GI50 is 5.04 nM in assay [1]; 15.6 nM in assay [2]; 796 nM in assay [3]; 57.4 nM and 261 nM in [5]. Also, the TGI in assay [1] turned out to be 22.3 µM; in assay [2], 20.2 µM; in assay [3] it was 20 µM; in assay [4], 22.5 µM; in [5] it was 16.3 µM; in [6], 19.9 µM. The TGI in assay [7] came to 13 µM; in assay [8], 19.9 µM; in assay [9], 16.8 µM; in assay [10], 17.4 µM.
As to `COC(=O)c1ccc2c(c1)C(=O)c1c-2n(CCCN)c(=O)c2cc(OC)c(OC)cc12`, the GI50 in assay [1] is 1830 nM; in assay [2], 16500 nM; in assay [3], 13600 nM; in assay [4], 19.8 µM; in assay [5] it was 17100 nM; in [6], 17.9 µM. Further, the GI50 in assay [7] is 9720 nM; in assay [8] it was 18600 nM; in assay [9], 6090 nM; in assay [10], 21600 nM. Further, the TGI in assay [1] was 4.67 µM; in assay [2] it was 39.7 µM; in assay [3], 31.5 µM; in assay [4], 40 µM; in [5], 37.2 µM; in assay [6], 35.2 µM. Moreover, the TGI is 28.1 µM in assay [7], 37.2 µM in assay [8], more than 52.9 µM in assay [9] and more than 52 µM in assay [10].
For `CC(=O)c1cc(-c2ccccc2N)n(-c2ccc3c(c2)OCO3)c1C`, the GI50 is 380 nM in assay [1]; 257 nM in assay [2]; 134 nM in assay [3]; 0.924 µM in assay [4]; 139 nM in assay [5]; 2.34 µM in assay [6]. Besides, the GI50 in assay [7] is 388 nM; in assay [8], 406 nM; in assay [9], 435 nM; in assay [10], 208 nM. The TGI in [1] was more than 100 µM; in assay [2], 15.9 µM; in assay [3], more than 77 µM; in assay [4], more than 100 µM; in [5] it was 5.49 µM; in assay [6], more than 73.9 µM. In addition, the TGI was more than 100 µM in assay [7], 83.7 µM in [8], more than 100 µM in assay [9] and 0.681 µM in [10].
As for `CNCCNc1nc2ccccc2c2c(=O)c3cc(OC)ccc3sc12`, the GI50 is 1770 nM in assay [1]; 1340 nM in assay [2]; 1540 nM in assay [3]; 1.68 µM in assay [4]; 1730 nM in [5]; 1.84 µM in [6]. Also, the GI50 in assay [7] is 1700 nM; in [8], 1500 nM; in assay [9], 1490 nM; in [10] it was 1390 nM. The TGI in [1] was determined as 3.53 µM; in assay [2], 2.62 µM; in assay [3] it was 3.08 µM; in assay [4], 3.22 µM; in [5] it was 3.56 µM; in assay [6], 3.34 µM. In addition, the TGI in assay [7] came to 3.18 µM; in [8], 2.97 µM; in assay [9], 3.22 µM; in assay [10] it was 2.7 µM.
Consider `CN1c2ccccc2S(=O)(=O)n2c(CCc3ccccc3)nnc21`, for which the TGI in assay [1], in [2], in assay [3], in assay [4], in assay [5] and in assay [6] was more than 100 µM throughout. Besides, the TGI in [7], in assay [8], in assay [9] and in assay [10] was more than 100 µM each time.
Turning to `Cc1nn(CNc2ccccc2C(F)(F)F)c(=S)n1/N=C/c1ccc(F)cc1`, the GI50 in assay [1] is 46600 nM; in [2], 91200 nM; in [3], 25900 nM; in assay [4] it was 23.3 µM; in assay [5], more than 100000 nM; in assay [6], 50 µM. Moreover, the GI50 in [7], in assay [8], in assay [9] and in assay [10] was more than 100000 nM in each case. For the same molecule, the TGI in assay [1] was more than 100 µM; in [2] it was more than 100 µM; in [3] it was more than 100 µM; in assay [4] it was 70.6 µM; in assay [5], more than 100 µM; in assay [6], more than 100 µM. For the same molecule, the TGI in [7], in assay [8], in [9] and in [10] was more than 100 µM in each case.
`Clc1ccc2ns[s+]c2c1`: the TGI in [1], in assay [2], in [3], in [4], in assay [5] and in assay [6] was more than 100 µM each time. In addition, the TGI in [7] was more than 100 µM; in assay [8], more than 100 µM; in [9], more than 29.9 µM; in [10], more than 100 µM.
`N=c1ccc2nc3c(cc(N)c4ccccc43)oc-2c1`: the GI50 in [1] was 287 nM; in [2] it was 167 nM; in assay [3] it was 179 nM; in assay [4], 0.0919 µM; in assay [5], 190 nM; in assay [6], 1.19 µM. Further, the GI50 in assay [7] is 1070 nM; in assay [8], 444 nM; in [9] it was 267 nM; in assay [10], 710 nM. Besides, the TGI stood at 1.05 µM in [1]; 0.353 µM in [2]; 1.21 µM in assay [3]; 0.235 µM in assay [4]; 0.501 µM in assay [5]; 2.54 µM in [6]. Also, the TGI in assay [7] worked out at 2.3 µM; in assay [8], 2.32 µM; in [9], 0.798 µM; in assay [10], 2.32 µM.
On to `Cc1ccc2sc3ccc(N)cc3c(=O)c2c1`, for which the TGI in assay [1], in assay [2], in [3], in [4], in [5] and in [6] was more than 100 µM in each case. The TGI in assay [7], in assay [8], in assay [9] and in assay [10] was more than 100 µM each time.
Take `COc1ccc([C@@H](O)c2cc(-c3ncnc4cc(N5CCOCC5)ccc34)c(F)cc2Cl)nn1`: the GI50 is 1080 nM in assay [1]; 3290 nM in assay [2]; 4960 nM in assay [3]; 6.12 µM in assay [4]; 3310 nM in assay [5]; 2.07 µM in [6]. In addition, the GI50 in assay [7] was 1100 nM; in assay [8], 1990 nM; in assay [9], 12500 nM; in assay [10], 678 nM. Moreover, the TGI was 41.1 µM in assay [1]; 21.4 µM in assay [2]; more than 100 µM in [3]; more than 100 µM in assay [4]; 22.3 µM in [5]; 38.1 µM in [6]. Moreover, the TGI in assay [7] was 25.3 µM; in assay [8] it was more than 100 µM; in assay [9], more than 100 µM; in [10], 11.6 µM.
